Measurements published in US20080293676A1, “Insecticidal Agents Based on Selected Insecticides and Safeners” (priority 2004, published 2008).

Tests used:
Format in all cases: in vivo
[1] = system: cotton aphid (Aphis gossypii); test: Aphis gossypii test, spray treatment to runoff on infested cotton plants
Text: (§1) The expected activity for a given combination of two active ingredients can be calculated (cf. Colby, S. R.; “Calculating Synergistic and Antagonistic Responses of Herbicide Combinations”, Weeds 15, pages 20-22, 1967):
(§2) If • x=the kill rate, expressed in % of the untreated control, when employing active ingredient A at an application rate of m ppm, • Y=the kill rate, expressed in % of the untreated control, when employing active ingredient B at an application rate of n ppm, and • E=the kill rate, expressed in % of the untreated control, when employing active ingredients A and B at application rates of m and n ppm, then
(§3) If the actual insecticidal kill rate is higher than the calculated one, the kill of the combination is superadditive, i.e. a synergistic effect is present. In this case, the kill rate that is actually observed has to be higher than the value, calculated using the formula above, for the expected kill rate (E).
(§4) An appropriate solution is prepared by mixing 1 part by weight of formulation with the stated amount of water and adjuvant, and diluting the concentrate with water to the desired concentration.
Cotton plants (Gossypium herbaceum) heavily infested by the cotton aphid (Aphis gossypii) are sprayed to runoff with the desired concentration of the application solution.
(§5) After the desired time the kill in % is determined in each case. In this context, 100% means that all of the larvae have been killed; 0% means that no larvae have been killed. The kill figures determined are calculated in accordance with the Colby formula described above.

[2] = system: green peach aphid (Myzus persicae); test: Myzus persicae test, spray treatment to runoff on infested bell pepper plants; details: for Kill in % after 1^d: Table E2
Text: as §1, §2, §3, §4
Bell pepper plants (Capsicum sativum) heavily infested by the green peach aphid (Myzus persicae) are sprayed to runoff with the desired concentration of the application solution.
as §5

[3] = system: caterpillars of the army worm (Spodoptera frugiperda); test: Spodoptera frugiperda test, spray treatment to runoff on corn plants
Text: as §1, §2, §3, §4
b) Spodoptera frugiperda Test
Corn plants (Zea mais) are sprayed to runoff with the desired use concentration and are populated with caterpillars of the army worm (Spodoptera frugiperda) while the leaves are still wet.
as §5

[4] = system: larvae of the cabbage moth (Plutella xylostella); test: Plutella xylostella test, spray treatment to runoff on cabbage plants; details: Table B
Text: as §1, §2, §3, §4
c) Plutella xylostella Test
Cabbage plants (Brassica pekinesis) are sprayed to runoff with the desired use concentration and are populated with larvae of the cabbage moth (Plutella xylostella) while the leaves are still wet.
as §5

[5] = system: caterpillars of the cotton boll worm (Heliothis armigera); test: Heliothis armigera test, spray treatment to runoff on cotton plants; details: Table A, 4 ppm
Text: as §1, §2, §3, §4
a) Heliothis armigera Test […]
After the desired time the kill in % is determined in each case. […] The kill figures determined are calculated in accordance with the Colby formula described above.

CC1(C)[C@H](C(=O)O[C@H](C#N)c2cccc(Oc3ccccc3)c2)[C@@H]1C=C(Br)Br [Deltamethrin]
Kill in % after 3^d ([1]; Table D2, 0.8 ppm): 15%
Kill in % after 1^d ([2]; 0.8 ppm): 20%

C=CCN(CC=C)C(=O)C(Cl)Cl [Dichlormid a.i., 2,2-dichloro-N,N-di-2-propenylacetamide]
Kill in % after 3^d ([3]; Table C2, 50 ppm): 0%
Kill in % after 3^d ([1]; Table D1, 100 ppm): 0%

Clc1cc(Cl)nc(-c2ccccc2)n1 [Fenclorim, 4,6-dichloro-2-phenylpyrimidine]
Kill in % after 3^d ([3]; Table C2, 100 ppm): 0%
Kill in % after 7^d ([4]; 100 ppm): 0%
Kill in % after 3^d ([1]; Table D1, 100 ppm): 0%
Kill in % after 3^d ([1]; Table D2, 100 ppm): 0%

CC1(C)OC(c2ccco2)CN1C(=O)C(Cl)Cl (stereo not shown) [Furilazole a.i., 3-dichloroacetyl-5-(2-furanyl)-2,2-dimethyloxazolidine]
Kill in % after 3^d ([3]; Table C2, 100 ppm): 0%
Kill in % after 3^d ([1]; Table D1, 100 ppm): 0%
Kill in % after 3^d ([1]; Table D2, 100 ppm): 0%
Kill in % after 1^d ([2]; 100 ppm): 0%

CNC(=O)Oc1cc(C)c(SC)c(C)c1 [Methiocarb]
Kill in % after 3^d ([3]; Table C2, 20 ppm): 17%
Kill in % after 7^d ([4]; 20 ppm): 0%

CC1(C)C(C=C(Cl)Cl)C1C(=O)OC(C#N)c1ccc(F)c(Oc2ccccc2)c1 (stereo not drawn) [β-Cyfluthrin, Beta-Cyfluthrin]
Kill in % after 3^d ([1]; Table D1, 0.8 ppm): 35%
Kill in % after 3^d ([2]; Table E1, 0.8 ppm, after 3 d): 10%

Chlorpyrifos
Kill in % after 3^d ([3]; Table C1, 4 ppm): 50%
Kill in % after 7^d ([4]; 4 ppm): 0%
Kill in % after 3^d [5]: 0%
